# Patent publication US11058680B2, “Combinations of opioid/TLR4 antagonists and acetaminophen for use in the treatment of emotional pain and insomnia” (Allodynic Threapeutics, LLC, priority 2016, dated 2021)
# Where “and” joins values, the source holds several entries; their conditions need not be identical. Identical values can stand only once.
# System: migraine attacks
# Test: Naltrexone/acetaminophen open-label pilot study, acute treatment of migraine: headache pain (4-point scale; relief score ≤1, pain-free score = 0), associated symptoms, additional meds
# Format: in vivo, human
# Protocol: Sixteen unique patients were enrolled in an open phase pilot study for the acute treatment of migraine attacks, insomnia, and emotional pain. Of the sixteen patients, eleven were evaluated for one migraine attack, one for two attacks, two for four attacks, one for six attacks, and one for fourteen attacks. A total of forty-one […] treatments were evaluated. Patients received a single dose of one of the following treatment options:
# The majority of the patients remained in the clinic for observation for 2 hours after dosing. They completed headache diary assessments immediately before and after dosing at time points: 7, 15, and 30 minutes; and 1, 1.5, 2, 3, 6, 12, 24, and 48 hours. Headache pain was assessed on a 4-point scale (0=none; 1=mild; 2=moderate; 3=severe). The assessment of photophobia, phonophobia, nausea, and neck/shoulder pain was assessed as present or absent. The assessment of emotional pain was recorded on a 4-point scale (0=none, 1=mild, 2=moderate, 3=severe). The assessment of difficulty sleeping or falling asleep (insomnia) was assessed on a 4-point scale (0=none, 1=mild, 2=moderate, 3=severe) at baseline, for the night before treatment and for the following nights at 24, and 48 hours. Patients recorded side effects severity at each time point. Patients recorded the time of the first rescue medication dose and all additional headache medications used within 48 hours. Patients were required to stay awake to record their assessments in the first 2 hours, sleeping was permitted thereafter. While asleep, assessments were completed according to patients' best estimation. For data analysis, it was assumed that a migraine attack is a unique patient. Patients were asked to specify (yes or no answer) to whether they experienced emotional pain symptoms such as: hurt feelings, sadness, fear, or anger. Patients who replied positively to having emotional pain were asked to specify the cause into one of the following options: relationship, work/school, money/debt, health, or loss/grief.
# [1] = 1 h, NTX/APAP 3.25 mg/325 mg, NTX 3.25 mg
# [2] = 1 h, NTX/APAP 5 mg/325 mg, NTX 5 mg
# [3] = 1 h, NTX/APAP […]325 mg, NTX 1.5 mg
# [4] = 1 h, naltrexone/acetaminophen 2.25 mg/325 mg (N=21), naltrexone 2.25 mg (N=9)
# [5] = 90 min, NTX/APAP 2.25 mg/325 mg, NTX 2.25 mg
# [6] = 90 min, NTX/APAP 3.25 mg/325 mg, NTX 3.25 mg
# [7] = 90 min, NTX/APAP 5 mg/325 mg, NTX 5 mg
# [8] = 90 min, NTX/APAP […]325 mg, NTX 1.5 mg
# [9] = 90 min, naltrexone/acetaminophen 2.25 mg/325 mg (N=21), naltrexone 2.25 mg (N=9)
# [10] = 2 h, NTX/APAP 2.25 mg/325 mg, NTX 2.25 mg
# [11] = 2 h, NTX/APAP 3.25 mg/325 mg, NTX 3.25 mg
# [12] = 2 h, NTX/APAP 5 mg/325 mg, NTX 5 mg
# [13] = 2 h, NTX/APAP […]325 mg, NTX 1.5 mg
# [14] = 2 h, naltrexone/acetaminophen 2.25 mg/325 mg (N=21), naltrexone 2.25 mg (N=9)
# [15] = 3 h, NTX/APAP 2.25 mg/325 mg, NTX 2.25 mg
smiles,measurement,setting,value
O=C1CC[C@@]2(O)[C@H]3Cc4ccc(O)c5c4[C@@]2(CCN3CC2CC2)[C@H]1O5 [naltrexone],Headache pain-relief,[1],3 (100) n (%)
same,Most bothersome symptom free,[1],2 (66) n (%)
same,Nausea-free,[1],3 (100) n (%)
same,Neck/shoulder pain-free,[1],3 (100) n (%)
same,Phonophobia-free,[1],2 (66) n (%)
same,Photophobia-free,[1],1 (33) n (%)
same,Additional meds taken,[2],0
same,Headache pain-free,[2],0 n (%)
same,Headache pain-relief,[2],1 n (%)
same,Most bothersome symptom free,[2],1 n (%)
same,Nausea-free,[2],1 n (%)
same,Neck/shoulder pain-free,[2],1 n (%)
same,Phonophobia-free,[2],1 n (%)
same,Photophobia-free,[2],1 n (%)
same,Additional meds taken,[3],0
same,Headache pain-free,[3],1 (33) n (%)
same,Headache pain-relief,[3],2 (66) n (%)
same,Most bothersome symptom free,[3],1 (33) n (%)
same,Nausea-free,[3],3 (100) n (%)
same,Neck/shoulder pain-free,[3],2 (66) n (%)
same,Phonophobia-free,[3],1 (33) n (%)
same,Photophobia-free,[3],2 (66) n (%)
same,Additional meds taken,"1 h, all doses combined",0
same,Headache pain-free,"1 h, all doses combined",8 (50) n (%)
same,Headache pain-relief,"1 h, all doses combined",13 (81) n (%)
same,Most bothersome symptom free,"1 h, all doses combined",11 (69) n (%)
same,Nausea-free,"1 h, all doses combined",12 (75) n (%)
same,Neck/shoulder pain-free,"1 h, all doses combined",12 (75) n (%)
same,Phonophobia-free,"1 h, all doses combined",12 (75) n (%)
same,Photophobia-free,"1 h, all doses combined",10 (63) n (%)
same,Headache pain-free,"1 h, naltrexone 1.5 mg (N=3)",33%
same,Headache pain-free,[4],44%
same,Headache pain-relief,[4],88%
same,Most bothersome symptom-free,[4],77%
same,Headache pain-free,"1 h, naltrexone/acetaminophen 3.25 mg/325 mg (N=3), naltrexone 3.25 mg (N=3)",100%
same,Additional meds taken,[5],0 (0)
same,Headache pain-free,[5],7 (77) n (%)
same,Headache pain-relief,[5],9 (100) n (%)
same,Most bothersome symptom free,[5],9 (100) n (%)
same,Nausea-free,[5],9 (100) n (%)
same,Neck/shoulder pain-free,[5],9 (100) n (%)
same,Phonophobia-free,[5],9 (100) n (%)
same,Photophobia-free,[5],8 (88) n (%)
same,Additional meds taken,[6],0 (0)
same,Headache pain-free,[6],3 (100) n (%)
same,Headache pain-relief,[6],3 (100) n (%)
same,Most bothersome symptom free,[6],2 (66) n (%)
same,Nausea-free,[6],2 (66) n (%)
same,Neck/shoulder pain-free,[6],3 (100) n (%)
same,Phonophobia-free,[6],2 (66) n (%)
same,Photophobia-free,[6],2 (66) n (%)
same,Additional meds taken,[7],0 (0)
same,Headache pain-free,[7],1 (100) n (%)
same,Headache pain-relief,[7],1 (100) n (%)
same,Most bothersome symptom free,[7],1 (100) n (%)
same,Nausea-free,[7],1 (100) n (%)
same,Neck/shoulder pain-free,[7],1 (100) n (%)
same,Phonophobia-free,[7],1 (100) n (%)
same,Photophobia-free,[7],1 (100) n (%)
same,Additional meds taken,[8],0 (0)
same,Headache pain-free,[8],1 (33) n (%)
same,Headache pain-relief,[8],3 (100) n (%)
same,Most bothersome symptom free,[8],2 (66) n (%)
same,Nausea-free,[8],3 (100) n (%)
same,Neck/shoulder pain-free,[8],1 (33) n (%)
same,Phonophobia-free,[8],1 (100) n (%)
same,Photophobia-free,[8],1 (100) n (%)
same,Additional meds taken,"90 min, all doses combined",0
same,Headache pain-free,"90 min, all doses combined",13 (81) n (%)
same,Headache pain-relief,"90 min, all doses combined",16 (100) n (%)
same,Most bothersome symptom free,"90 min, all doses combined",14 (88) n (%)
same,Nausea-free,"90 min, all doses combined",16 (100) n (%)
same,Neck/shoulder pain-free,"90 min, all doses combined",14 (88) n (%)
same,Phonophobia-free,"90 min, all doses combined",13 (81) n (%)
same,Photophobia-free,"90 min, all doses combined",12 (75) n (%)
same,Headache pain-free,"90 min, naltrexone 1.5 mg (N=3)",100%
same,Headache pain-free,[9],77% and 100%
same,Headache pain-relief,[9],100%
same,Most bothersome symptom-free,[9],100%
same,Headache pain-free,"90 min, naltrexone/acetaminophen 3.25 mg/325 mg (N=3), naltrexone 3.25 mg (N=3)",100%
same,Additional meds taken,[10],0
same,Headache pain-free,[10],7 (77) n (%)
same,Headache pain-relief,[10],9 (100) n (%)
same,Most bothersome symptom free,[10],9 (100) n (%)
same,Nausea-free,[10],9 (100) n (%)
same,Neck/shoulder pain-free,[10],9 (100) n (%)
same,Phonophobia-free,[10],9 (100) n (%)
same,Photophobia-free,[10],8 (88) n (%)
same,Additional meds taken,[11],0
same,Headache pain-free,[11],3 (100) n (%)
same,Headache pain-relief,[11],3 (100) n (%)
same,Most bothersome symptom free,[11],3 (100) n (%)
same,Nausea-free,[11],3 (100) n (%)
same,Neck/shoulder pain-free,[11],3 (100) n (%)
same,Phonophobia-free,[11],3 (100) n (%)
same,Photophobia-free,[11],3 (100) n (%)
same,Additional meds taken,[12],0
same,Headache pain-free,[12],1 n (%)
same,Headache pain-relief,[12],1 n (%)
same,Most bothersome symptom free,[12],1 n (%)
same,Nausea-free,[12],1 n (%)
same,Neck/shoulder pain-free,[12],1 n (%)
same,Phonophobia-free,[12],1 n (%)
same,Photophobia-free,[12],1 n (%)
same,Additional meds taken,[13],0
same,Headache pain-free,[13],3 (100) n (%)
same,Headache pain-relief,[13],3 (100) n (%)
same,Most bothersome symptom free,[13],3 (100) n (%)
same,Nausea-free,[13],3 (100) n (%)
same,Neck/shoulder pain-free,[13],3 (100) n (%)
same,Phonophobia-free,[13],3 (100) n (%)
same,Photophobia-free,[13],3 (100) n (%)
same,Additional meds taken,"2 h, combined doses",0
same,Headache pain-free,"2 h, combined doses",14 (88) n (%)
same,Headache pain-relief,"2 h, combined doses",16 (100) n (%)
same,Most bothersome symptom free,"2 h, combined doses",16 (100) n (%)
same,Nausea-free,"2 h, combined doses",16 (100) n (%)
same,Neck/shoulder pain-free,"2 h, combined doses",16 (100) n (%)
same,Phonophobia-free,"2 h, combined doses",16 (100) n (%)
same,Photophobia-free,"2 h, combined doses",16 (100) n (%)
same,Headache pain-free,"2 h, naltrexone 1.5 mg (N=3)",100%
same,Headache pain-free,[14],77% and 100%
same,Headache pain-relief,[14],100%
same,Most bothersome symptom-free,[14],100%
same,Headache pain-free,"2 h, naltrexone/acetaminophen 3.25 mg/325 mg (N=3), naltrexone 3.25 mg (N=3)",100%
same,Additional meds taken,[15],0 (0)
same,Headache pain-free,[15],7 (77) n (%)
same,Headache pain-relief,[15],9 (100) n (%)
same,Most bothersome symptom free,[15],9 (100) n (%)
same,Nausea-free,[15],9 (100) n (%)
same,Neck/shoulder pain-free,[15],9 (100) n (%)
same,Phonophobia-free,[15],9 (100) n (%)
